Measured values from ChEMBL document CHEMBL5625263, “Discovery of a novel series of selective macrocyclic PKCTheta inhibitors” (Bioorg Med Chem Lett, 2024).
≈ marks a conversion by molar mass, not a printed value.

How the values were obtained:
[1] = Apparent permeability of a compound in human Caco-2 cells; assay type: ADME, cell-based
[2] = biological target: T1, Protein kinase C theta type (Homo sapiens, UniProt Q04759); assay: Inhibition of PKC theta (unknown origin) in presence of ATP at Km
T1 sequence (Q04759 whole entry): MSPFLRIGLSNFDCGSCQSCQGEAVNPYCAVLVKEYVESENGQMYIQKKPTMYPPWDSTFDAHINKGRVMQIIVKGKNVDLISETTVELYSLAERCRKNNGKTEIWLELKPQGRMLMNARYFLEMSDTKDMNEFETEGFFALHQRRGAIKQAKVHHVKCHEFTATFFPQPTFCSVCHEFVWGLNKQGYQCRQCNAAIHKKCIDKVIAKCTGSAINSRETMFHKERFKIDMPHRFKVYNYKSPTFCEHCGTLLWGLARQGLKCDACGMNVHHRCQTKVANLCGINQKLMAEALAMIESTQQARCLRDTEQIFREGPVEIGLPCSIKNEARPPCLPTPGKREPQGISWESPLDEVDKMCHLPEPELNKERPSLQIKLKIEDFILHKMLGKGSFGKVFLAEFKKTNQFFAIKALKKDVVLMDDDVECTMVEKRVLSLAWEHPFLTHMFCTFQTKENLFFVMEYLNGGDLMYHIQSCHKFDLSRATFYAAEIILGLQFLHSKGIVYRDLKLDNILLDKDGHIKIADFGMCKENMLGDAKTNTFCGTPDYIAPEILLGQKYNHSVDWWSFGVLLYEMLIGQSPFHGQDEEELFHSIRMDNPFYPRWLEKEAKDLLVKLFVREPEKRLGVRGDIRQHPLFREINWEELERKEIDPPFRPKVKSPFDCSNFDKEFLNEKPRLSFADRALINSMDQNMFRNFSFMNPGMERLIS

[3] = Metabolic stability in human hepatocytes assessed as intrinsic clearance measured per 10^6 cells; assay type: ADME, cell-based, Hepatocyte; conditions: read-out: CLH
[4] = biological target: Voltage-gated inwardly rectifying potassium channel KCNH2 (Homo sapiens, UniProt Q12809); assay: Inhibition of hERG; assay type: toxicity
Voltage-gated inwardly rectifying potassium channel KCNH2, sequence (Q12809 whole entry): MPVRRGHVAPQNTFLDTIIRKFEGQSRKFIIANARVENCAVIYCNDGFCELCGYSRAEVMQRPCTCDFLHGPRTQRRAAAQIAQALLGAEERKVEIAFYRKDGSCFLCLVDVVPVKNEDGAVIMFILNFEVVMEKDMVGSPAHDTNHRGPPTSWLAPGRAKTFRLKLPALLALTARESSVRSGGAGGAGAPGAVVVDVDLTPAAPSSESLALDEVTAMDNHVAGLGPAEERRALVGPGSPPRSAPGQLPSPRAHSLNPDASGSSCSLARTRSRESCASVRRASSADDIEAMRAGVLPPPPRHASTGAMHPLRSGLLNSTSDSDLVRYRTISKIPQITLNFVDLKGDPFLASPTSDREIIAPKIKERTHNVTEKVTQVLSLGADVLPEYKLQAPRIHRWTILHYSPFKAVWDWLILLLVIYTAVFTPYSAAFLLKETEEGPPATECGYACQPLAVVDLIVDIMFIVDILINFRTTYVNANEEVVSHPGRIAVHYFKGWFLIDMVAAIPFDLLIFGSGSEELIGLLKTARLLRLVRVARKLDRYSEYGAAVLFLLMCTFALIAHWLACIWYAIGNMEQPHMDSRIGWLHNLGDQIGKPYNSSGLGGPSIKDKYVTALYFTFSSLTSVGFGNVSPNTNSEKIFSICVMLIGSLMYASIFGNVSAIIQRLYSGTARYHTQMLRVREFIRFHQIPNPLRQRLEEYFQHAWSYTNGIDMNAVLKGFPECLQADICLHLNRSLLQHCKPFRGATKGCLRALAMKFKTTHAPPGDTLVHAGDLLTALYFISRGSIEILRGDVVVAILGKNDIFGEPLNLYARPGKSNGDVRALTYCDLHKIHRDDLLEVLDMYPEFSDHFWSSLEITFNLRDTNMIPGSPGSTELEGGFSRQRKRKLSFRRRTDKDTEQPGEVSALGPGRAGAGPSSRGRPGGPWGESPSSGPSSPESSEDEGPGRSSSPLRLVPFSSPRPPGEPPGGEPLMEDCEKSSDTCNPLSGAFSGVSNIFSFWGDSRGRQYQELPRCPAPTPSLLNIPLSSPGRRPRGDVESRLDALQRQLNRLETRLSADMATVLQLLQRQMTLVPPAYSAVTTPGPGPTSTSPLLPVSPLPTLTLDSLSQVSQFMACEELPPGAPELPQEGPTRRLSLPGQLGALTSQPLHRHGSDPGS

[5] = biological target: T1, Protein kinase C theta type; assay: Inhibition of PKC theta (unknown origin) in presence of 1 mM ATP
[6] = Efflux ratio of apparent permeability across basolateral to apical side over apical to basolateral side in human Caco-2 cells; assay type: ADME, cell-based
[7] = biological target: T2, Protein kinase C alpha type (Homo sapiens, UniProt P17252); assay: Inhibition of PKC alpha (unknown origin) in presence of 1 mM ATP
[8] = biological target: T1, Protein kinase C theta type; assay: Inhibition of PKC theta in TCR-stimulated human PBMC assessed as inhibition of IL-2 release; assay type: cell-based
[9] = biological target: T2, Protein kinase C alpha type; assay: Inhibition of PKC alpha (unknown origin) in presence of ATP at Km
[10] = Solubility of the compound; assay type: physicochemical
[11] = Selectivity ratio of inhibition of PKCdelta (unknown origin) to inhibition of PKC theta (unknown origin) at 1 mM ATP concentration
[12] = Selectivity ratio of inhibition of PKACalpha (unknown origin) to inhibition of PKC theta (unknown origin) at 1 mM ATP concentration
[13] = Selectivity ratio of inhibition of GSK3beta (unknown origin) to inhibition of PKC theta (unknown origin) at 1 mM ATP concentration
[14] = Selectivity ratio of inhibition of TRKA (unknown origin) to inhibition of PKC theta (unknown origin) at 1 mM ATP concentration
[15] = Selectivity ratio of inhibition of MSK1 (unknown origin) to inhibition of PKC theta (unknown origin) at 1 mM ATP concentration
[16] = Selectivity ratio of inhibition of PI3K-C2beta (unknown origin) to inhibition of PKC theta (unknown origin) at 1 mM ATP concentration
[17] = Selectivity ratio of inhibition of CLK1 (unknown origin) to inhibition of PKC theta (unknown origin) at 1 mM ATP concentration
[18] = Selectivity ratio of inhibition of RSK3 (unknown origin) to inhibition of PKC theta (unknown origin) at 1 mM ATP concentration
[19] = Selectivity ratio of inhibition of AURB (unknown origin) to inhibition of PKC theta (unknown origin) at 1 mM ATP concentration
[20] = Oral bioavailability in rat; assay type: ADME, organism-based; conditions: in vivo
[21] = Selectivity ratio of inhibition of PKCbeta1 (unknown origin) to inhibition of PKC theta (unknown origin) at 1 mM ATP concentration
[22] = Selectivity ratio of inhibition of FLT3 (unknown origin) to inhibition of PKC theta (unknown origin) at 1 mM ATP concentration
[23] = Selectivity ratio of inhibition of HGK (unknown origin) to inhibition of PKC theta (unknown origin) at 1 mM ATP concentration
[24] = Selectivity ratio of inhibition of PKCeta (unknown origin) to inhibition of PKC theta (unknown origin) at 1 mM ATP concentration

Compound | Papp [1] [×10⁻⁶ cm/s] | IC50 [2] [nM] | hepatocyte CLint [3] [µL/min/1e6 cells] | IC50 [5] [nM] | efflux ratio [6] | IC50 [7] [nM] | IC50 [8] [nM] | IC50 [9] [nM] | solubility [10] [µM] | other results
CC1CCOc2ccnc3ccc(nc23)-n2c(=O)[nH]c3nccc(c32)O1 (configuration not stated) | 26 | 4.2 | < 4 | 54 | 1 | 7900 | 255 | 980 |  | IC50 [4]: > 30000 nM
CC1(C)NC(=O)c2ccc3cc2N1CCCOc1ccnc2[nH]c(=O)n-3c12 | 0.3 |  |  |  |  |  |  |  | 9 (≈ 3.29 µg/mL) | 
C[C@H](c1ccccc1)N1c2cc(-n3c(=O)[nH]c4ncccc43)ccc2C(=O)NC1(C)C | 7.4 |  | 11 |  |  |  |  |  | 54 (≈ 22.3 µg/mL) | 
CC1CCN(C)c2ccnc3ccc(nc23)-n2c(=O)[nH]c3nccc(c32)O1 (configuration not stated) | 14 | < 0.5 | < 4 | 1 | 2 | 940 | 6.5 | 82 |  | IC50 [4]: < 400 nM
CC1CCC(C)c2ccnc3ccc(nc23)-n2c(=O)[nH]c3nccc(c32)O1 (configuration not stated) |  | < 0.5 | 19 | 3.9 |  | 840 | 28 | 65 |  | 
CC1CCN(C)c2ccnc3cc(F)c(nc23)-n2c(=O)[nH]c3nccc(c32)O1 (configuration not stated) |  | < 0.5 | 10 | < 0.5 |  | 190 | 1.9 | 25 |  | IC50 [4]: 2400 nM
CC1CCCOc2nc(c(-c3nnc[nH]3)cc2C(N)=O)-n2c(=O)[nH]c3nccc(c32)O1 (configuration not stated) |  | 3.3 |  |  |  |  | 160 | 1100 |  | 
O=c1ccn2c3nc(ccc13)-n1c(=O)[nH]c3nccc(c31)OCCCC2 | 0.2 |  | 6 |  |  |  |  |  | 0.9 (≈ 0.314 µg/mL) | 
CC1CCn2ccc(=O)c3cc(F)c(nc32)-n2c(=O)[nH]c3nccc(c32)O1 (configuration not stated) | 0.5 | < 0.5 | < 4 | 5 | 53 | 3700 | 27 | 440 | 274 (≈ 101 µg/mL) | 
CC1CCCn2ccc(=O)c3ccc(nc32)-n2c(=O)[nH]c3nccc(c32)O1 (configuration not stated) | 1.3 | 1.2 | < 4 | 15 | 23 | 6600 | 52 | 880 | 275 (≈ 99.9 µg/mL) | 
CC1CCCOc2cccc(n2)-n2c(=O)[nH]c3nccc(c32)O1 (configuration not stated) | 31 | 5 | 6.1 | 61 | 0.6 | > 10000 | 236 | 1900 | 32 (≈ 9.99 µg/mL) | 
CC1(C)NC(=O)c2ccc3nc2N1CCCOc1ccnc2[nH]c(=O)n-3c12 | 1.3 |  |  |  |  |  |  |  | 1.9 (≈ 0.696 µg/mL) | 
NC(=O)c1ccc2nc1OCCCCOc1ccnc3[nH]c(=O)n-2c13 | 0.2 |  |  |  |  |  |  |  | 5.5 (≈ 1.88 µg/mL) | 
CC1(C)NC(=O)c2ccc3nc2N1CCCCOc1ccnc2[nH]c(=O)n-3c12 | 0.1 |  |  |  |  |  |  |  | 1.5 (≈ 0.571 µg/mL) | 
CN1CCCCOc2ccnc3[nH]c(=O)n(c23)-c2cc1ccc2Cl |  |  | < 1 |  |  |  |  |  | 4 (≈ 1.38 µg/mL) | 
CC1CCCOc2ccnc3[nH]c(=O)n(c23)-c2nc(c(C(N)=O)cc2-c2ncc[nH]2)O1 (configuration not stated) |  | < 1 | 22 | 1.2 |  | 2200 | 15 | 270 |  | 
CC1CCN2c3nc(ccc3C(=O)NC2(C)C)-n2c(=O)[nH]c3nccc(c32)O1 (configuration not stated) | 0.9 | < 0.1 |  | 0.1 | 65 | 487 | 6 | 57 | 25 (≈ 9.51 µg/mL) | Selectivity ratio [11]: 677; Selectivity ratio [12]: 25000; Selectivity ratio [13]: 17900; Selectivity ratio [14]: 5180; Selectivity ratio [15]: 5160; Selectivity ratio [16]: 4640; Selectivity ratio [17]: 1620; Selectivity ratio [18]: 2260; Selectivity ratio [19]: 253; bioavailability [20]: 17%; Selectivity ratio [21]: 911; Selectivity ratio [22]: 2450; Selectivity ratio [23]: 14500; Selectivity ratio [24]: 997
CC1CCCOc2nc(c(-c3cnc[nH]3)cc2C(N)=O)-n2c(=O)[nH]c3nccc(c32)O1 (configuration not stated) |  | 1.4 |  | 15 |  | 6700 | 89 | 920 |  | 
CC1CCCOc2ccnc3[nH]c(=O)n(c23)-c2ccc3nccc1c3n2 (configuration not stated) | 31 | < 0.5 | 36 | < 0.5 | 0.8 | 550 | 4.2 | 59 |  | IC50 [4]: 24000 nM
CC1CCCOc2nc(c(-c3ccn[nH]3)cc2C(N)=O)-n2c(=O)[nH]c3nccc(c32)O1 (configuration not stated) |  | 47 |  |  |  |  |  | 8200 |  | 
O=c1[nH]c2nccc3c2n1-c1cccc(n1)OCCCCO3 | 15 | 9.2 | 12 |  | 0.9 |  |  | > 10000 | 3 (≈ 0.895 µg/mL) | 
CC1CCC(C)Oc2ccnc3[nH]c(=O)n(c23)-c2nc(c(C(N)=O)cc2F)O1 (configuration not stated) | 8 | < 0.5 | < 4 | 0.9 | 7 | 620 | 12 | 49 | 145 (≈ 56.2 µg/mL) | bioavailability [20]: 69%
CN1CCCCOc2ccnc3[nH]c(=O)n(c23)-c2ccc(C(N)=O)c1n2 | 2.2 |  |  |  |  |  |  |  | 16 (≈ 5.67 µg/mL) | 
CC1CCCOc2ccnc3[nH]c(=O)n(c23)-c2ccc3c(=O)ccn1c3n2 (configuration not stated) | 3.1 | < 0.5 | 17 | < 0.5 | 12 | 679 | 7.6 | 68 | 296 (≈ 108 µg/mL) | 
CC1(C)NC(=O)c2ccc3cc2N1CCCCOc1ccnc2[nH]c(=O)n-3c12 | 0.7 |  |  |  |  |  |  |  | 12 (≈ 4.55 µg/mL) | 
CC1CCCOc2ccnc3[nH]c(=O)n(c23)-c2cccc(n2)O1 (configuration not stated) | 32 | < 0.5 | 32 | 3.6 | 0.7 | 2200 | 28 | 259 | 180 (≈ 56.2 µg/mL) | 
CN1CCN(c2nc(C3=C(c4c[nH]c5ccccc45)C(=O)NC3=O)c3ccccc3n2)CC1 [SOTRASTAURIN] |  | 0.7 |  | 3.4 |  |  | 49 |  |  | 
